What all share (test): Cell viability MTS assay
Assay type in all cases: cell-based, human

The subject of assay [1] is HCT-116. As to the method: (§1) Cell viability was determined by measuring the activity of dehydrogenase enzymes in metabolically active cells using a tetrazolium compound, MTS. The assay was performed as described in Promega Technical Bulletin No. 169 (CellTiter 96 Aqueous Non-Radioactive Cell Proliferation Assay). Thirteen human cancer cell lines were assayed (see, e.g., Table 1). Cells were maintained at 37° C., 5% CO2. Adherent cells were maintained DMEM media (4.5 g/L glucose) supplemented with 15% heat-inactivated FBS, 10 mM L-glutamine, and 10 mM Hepes pH 7.5. Suspension cells were maintained in RPMI 1640 media, supplemented with 10% heat-inactivated FBS and 10 mM Hepes pH 7.5. Briefly, cells were seeded in 96-well plates as set forth in Table 1 and incubated for 16-24 hours. Candidate compounds were serially diluted in DMSO, further diluted in cell culture media, and then added to cells (final DMSO concentration of 0.33%). Cells were incubated in the presence of candidate compound for 72 hours. MTS stock solution (MTS 2 gm/L, PMS […] in PBS) was added to the cells (final concentration MTS […] and PMS 7.67 mg/L) and incubated for 4 hours. SDS was added to a final concentration of 1.4% and absorbance at 490 nm was measured within two hours using a platereader. The IC50 was defined as the concentration of compound that results in a 50% reduction in the number of viable cells as compwered to control wells treated with DMSO only (0.33%) and was calculated using non-linear regression analyswas. IC50 values were given in Table 2 for the compounds listed.

Assay [2] has as its system A549. Here is the method:
as §1

Assay [3] has as its system HT29. As to the method:
as §1

Assay [4] relates to K562. Here is the method: as §1
The subject of assay [5] is DU-145. As to the method:
as §1

Assay [6] concerns MDA-MB-231. As to the method: as §1
Assay [7] has as its system MCF7. The following applies: Homo sapiens, MCF7, 72 hours with compound. Here is the method: as §1
The test system of assay [8] is SKOV-3. The following applies: Homo sapiens, SK-OV-3, 72 hours with compound. As to the method:
as §1

In assay [9] the test system is PC-3. The following applies: Homo sapiens, PC-3, 72 hours with compound. Here is the method:
as §1

Assay [10] has as its system SK-MEL-28. The note with it: Homo sapiens, SK-MEL-28, 72 hours with compound. Here is the method: as §1
Where [11] appears, read: Homo sapiens, MDA-MB-231, 72 hours with compound.
[12] abbreviates: Homo sapiens, HT-29, 72 hours with compound.

With “3-(5,6-Dihydro-4H-pyrrolo[3,2,1-ij]quinolin-1-yl)-4-(2,6-dichloro-phenyl)-pyrrole-2,5-dione [Example 20]”, the IC50 in assay [1] (72 hours with compound) was 4.96 µM; in [2] (72 hours with compound), 38.8 µM; in assay [3] (72 hours with compound), greater than 100 µM; in [4] (72 hours with compound), 2.47 µM; in assay [5] (72 hours with compound), 31.1 µM.
Consider `O=C1[C@@H](c2c[nH]c3ccccc23)[C@H](c2cn3c4c(cccc24)CCC3)C(=O)N1COP(=O)(O)O` (racemic) [(±)-Phosphoric acid mono-[trans-3-(5,6-dihydro-4H-pyrrolo[3,2,1-ij]quinolin-1-yl)-4-(1H-indol-3-yl)-2,5-dioxo-pyrrolidin-1-ylmethyl]ester], for which the IC50 in [6] (setting [11]) was 5.89 µM; in assay [3] (setting [12]), 4.45 µM.
Take `CC(N)C(=O)OCN1C(=O)[C@@H](c2c[nH]c3ccccc23)[C@H](c2cn3c4c(cccc24)CCC3)C1=O` (mixture of isomers) [Example 57, (±)-trans-2-Amino-propionic acid-3-(5,6-dihydro-4H-pyrrolo[3,2,1-ij]quinolin-1-yl)-4-(1H-indol-3-yl)-2,5-dioxo-pyrrolidin-1-yl methyl ester]: the IC50 is 3.14 µM in assay [6] (72 hours with compound) and 2.9 µM in assay [3] (72 hours with compound).
As for `O=C1NC(=O)[C@@H](c2cn3c4c(cccc24)CN(C(=O)OCc2ccccc2)CC3)[C@@H]1c1c[nH]c2ccccc12` (racemic) [Example 74, (±)-Trans-7-[4-(1H-indol-3-yl)-2,5-dioxo-pyrrolidin-3-yl]-3,4-dihydro-1H-[1,4]diazepino[6,7,1-hi]indole-2-carboxylic acid benzyl ester], the IC50 is greater than 100 µM in assay [6] (setting [11]) and 90.7 µM in assay [3] (setting [12]).
On to `O=C1NC(=O)C(c2cn3c4c(cccc24)CCC3)=C1c1ccc(F)cc1Cl` [Example 18, 3-(5,6-Dihydro-4H-pyrrolo[3,2,1-ij]quinolin-1-yl)-4-(2-chloro-4-fluoro-phenyl)-pyrrole-2,5-dione], for which the IC50 in assay [6] (setting [11]) and in [3] (setting [12]) was greater than 100 µM in each case.
With `NCC(=O)OCN1C(=O)[C@@H](c2c[nH]c3ccccc23)[C@H](c2cn3c4c(cccc24)CCC3)C1=O` (racemic) [Example 58, (±)-trans-2-Amino-acetic acid-3-(5,6-dihydro-4H-pyrrolo[3,2,1-ij]quinolin-1-yl)-4-(1H-indol-3-yl)-2,5-dioxo-pyrrolidin-1-yl methyl ester], the IC50 in [6] (72 hours with compound) was 3.45 µM; in assay [3] (72 hours with compound), 2.77 µM.
For `O=C1NC(=O)[C@@H](c2cn3c4c(cccc24)CCC3)[C@@H]1c1ccsc1` (racemic) [Example 45, (±)-Trans-3-(5,6-dihydro-4H-pyrrolo[3,2,1-ij]quinolin-1yl)-4-(thiophen-3-yl)pyrrolidine-2,5-dione], the IC50 was 42.7 µM in assay [6] (setting [11]) and 27.6 µM in [3] (setting [12]).
Take `O=C1NC(=O)C(c2cn3c4c(cccc24)CCC3)=C1c1ccccn1` [Example 9, 3-(5,6-Dihydro-4H-pyrrolo[3,2,1-ij]quinolin-1-yl)-4-pyridin-2-yl-pyrrole-2,5-dione]: the IC50 in [6] (setting [11]) and in assay [3] (setting [12]) was greater than 100 µM each time.
In the case of `O=C1NC(=O)C(c2cn3c4c(cccc24)CCC3)=C1c1c(Cl)cccc1Cl` [Example 20, 3-(5,6-Dihydro-4H-pyrrolo[3,2,1-ij]quinolin-1-yl)-4-(2,6-dichloro-phenyl)-pyrrole-2,5-dione], the IC50 was greater than 100 µM in assay [7]; 50.3 µM in assay [6] (setting [11]); 23.8 µM in assay [8]; 82.7 µM in assay [9]; 74 µM in assay [10].
For `O=C1NC(=O)C(n2ccc3ccccc32)=C1c1cn2c3c(cccc13)CCC2` [Example 22, 3-(5,6-Dihydro-4H-pyrrolo[3,2,1-ij]quinolin-1-yl)-4-indol-1-yl-pyrrole-2,5-dione], the IC50 was 59.4 µM in assay [6] (setting [11]) and greater than 100 µM in [3] (setting [12]).
Turning to `O=C1NC(=O)C(c2cn3c4c(cccc24)CCC3)=C1c1ccccc1` [Example 12, 3-(5,6-Dihydro-4H-pyrrolo[3,2,1-ij]quinolin-1-yl)-4-phenyl-pyrrole-2,5-dione], the results for the IC50 in assay [6] (setting [11]) and in assay [3] (setting [12]) were 81.6 µM and 66.5 µM, respectively.
For `COc1ccc(C2=C(c3cn4c5c(cccc35)CCC4)C(=O)NC2=O)cc1` [Example 10, 3-(5,6-Dihydro-4H-pyrrolo[3,2,1-ij]quinolin-1-yl)-4(4-methoxy-phenyl)-pyrrole-2,5-dione], the IC50 in [6] (setting [11]) and in [3] (setting [12]) was greater than 100 µM each time.
Take `O=C1NC(=O)[C@@H](c2cn3c4c(cccc24)CCC3)[C@@H]1c1ccc(Cl)cc1` (racemic) [Example 43, (±)-Trans-3-(5,6-dihydro-4H-pyrrolo[3,2,1-ij]quinolin-1yl)-4-(4-chlorophenyl)pyrrolidine-2,5-dione]: the IC50 turned out to be 54.5 µM in [6] (setting [11]) and 48.7 µM in assay [3] (setting [12]).
In the case of `O=C1NC(=O)C(c2cn3c4c(cccc24)CCC3)=C1c1ccc2c(c1)OCO2` [Example 11, 3-Benzo[1,3]dioxol-5-yl-4-(5,6-dihydro-4H-pyrrolo[3,2,1-ij]quinolin-1-yl)-pyrrole-2,5-dione], the IC50 in [6] (setting [11]) and in assay [3] (setting [12]) was greater than 100 µM in each case.
Regarding `COc1ccc(OC)c(C2=C(c3cn4c5c(cccc35)CCC4)C(=O)NC2=O)c1` [Example 17, 3-(5,6-Dihydro-4H-pyrrolo[3,2,1-ij]quinolin-1-yl)-4(2,5-dimethoxy-phenyl)-pyrrole-2,5-dione], the IC50 in [6] (setting [11]) and in [3] (setting [12]) was greater than 100 µM each time.
With `O=C1NC(=O)[C@@H](c2cn3c4c(cccc24)CNCC3)[C@@H]1c1c[nH]c2ccccc12` (racemic) [Example 75, (±)-Trans-3-(1H-indol-3-yl)-4-(1,2,3,4-tetrahydro-[1,4]diazepino[6,7,1-hi]indol-7-yl)-pyrrolidine-2,5-dione], the IC50 in assay [6] (setting [11]) and in assay [3] (setting [12]) was greater than 100 µM each time.
Regarding `COc1ccc(-c2ccc3[nH]cc([C@@H]4C(=O)NC(=O)[C@H]4c4cn5c6c(cccc46)CCC5)c3c2)cc1` (racemic) [Example 38, (±)-Trans-3-(5,6-dihydro-4H-pyrrolo[3,2,1-ij]quinolin-1yl)-4-(5-(4-methoxyphenyl)-1H-indol-3-yl)pyrrolidine-2,5-dione], the IC50 in assay [6] (setting [11]) came to 13.1 µM; in assay [3] (setting [12]), 10.6 µM.
Turning to `O=C1NC(=O)[C@@H](c2cn3c4c(cccc24)CCC3)[C@@H]1c1ccc(Cl)cc1Cl` (racemic) [Example 48, (±)-Trans-3-(5,6-dihydro-4H-pyrrolo[3,2,1-ij]quinolin-1yl)-4-(2,4-dichlorophenyl)pyrrolidine-2,5-dione], the IC50 in assay [6] (setting [11]) was determined as 14.8 µM; in assay [3] (setting [12]), 8.39 µM.
As for “3-(4-Benzoyloxyphenyl)-4-(5,6-dihydro-4H-pyrrolo[3,2,1-ij]quinolin-1-yl)-pyrrole-2,5-dione [Example 29]”, the IC50 in assay [6] (72 hours with compound) and in [3] (72 hours with compound) was greater than 100 µM in each case.
As to `O=C1NC(=O)[C@@H](c2cn3c4c(cccc24)CCC3)[C@H]1c1ccc(F)cc1Cl` (racemic) [Example 54, (±)-Cis-3-(5,6-dihydro-4H-pyrrolo[3,2,1-ij]quinolin-1yl)-4-(2-chloro-4-fluoro-phenyl)-pyrrolidine-2,5-dione], the IC50 was 7.63 µM in assay [1] (Homo sapiens, HCT-116, 72 hours with compound); 22.1 µM in [2] (Homo sapiens, A549, 72 hours with compound); greater than 100 µM in [7]; 6.88 µM in assay [8]; 11.5 µM in assay [9]; 8.78 µM in assay [3] (setting [12]). Further, the IC50 turned out to be 3.37 µM in [4] (Homo sapiens, K562, 72 hours with compound); 25.2 µM in [10]; 21.1 µM in [5] (Homo sapiens, DU-145, 72 hours with compound).
On to `O=C1NC(=O)C(c2cn3c4c(cccc24)CN(C(=O)OCc2ccccc2)CC3)=C1c1c[nH]c2ccccc12` [Example 73, 7-[4-(1H-indol-3-yl)-2,5-dioxo-2,5-dihydro-1H-pyrrol-3-yl]-3,4-dihydro-1H-[1.4]diazepino[6,7,1-hi]indole-2-carboxylic acid benzyl ester], for which the IC50 in [6] (72 hours with compound) and in assay [3] (72 hours with compound) was greater than 100 µM throughout.
`O=C1NC(=O)[C@@H](c2cn3c4c(cccc24)CCC3)[C@@H]1c1ccc(OC(F)(F)F)cc1` (racemic) [Example 44, (±)-Trans-3-(5,6-dihydro-4H-pyrrolo[3,2,1-ij]quinolin-1yl)-4-(4-trifluoromethoxyphenyl)pyrrolidine-2,5-dione]: the IC50 in assay [6] (setting [11]) stood at 14.1 µM; in [3] (setting [12]) it was 12.5 µM.

These data come from patent US7713969B2, “Compositions and methods for treatment of cancer” (ArQule, Inc., priority 2005, dated 2010).
